Experimental findings from ChEMBL document CHEMBL1201862, “PubChem BioAssay data set” (2004) are described below.

Experiment in all cases: NCI anticancer screen, dose series, 48 h
The test system of assay [1] is DLD-1.
Assay [2] has as its system DMS-114.
Assay [3] deals with DMS-273.
In assay [4] the test system is HOP-18.
In assay [5] the test system is KM-20L2.
Assay [6] concerns LXFL 529.
For assay [7], the system named is RXF 631.
Assay [8] deals with SNB-78.
The subject of assay [9] is XF498.

Each structure is given as a SMILES string.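 How tested: cells in 96-well plates exposed to compound for 48 hours at five concentrations. GI50 = concentration required for 50% inhibition of growth.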 Active and inactive are the calls of the source. No stated cut-off is given here; in the data, active = GI50 up to about 1.1 µM and inactive = higher.

On to `C[Si](C)(C)c1ccc(CC2(Cc3ccc([Si](C)(C)C)cc3)CCNC2)cc1`, for which the GI50 in [1] is 2.51 µM (inactive); in assay [2], 2.13 µM (inactive); in assay [3], 1.94 µM (inactive); in assay [4] it was 2.77 µM (inactive); in [5], 1.9 µM (inactive); in [6], 2.18 µM (inactive). The GI50 is 2.32 µM (inactive) in assay [7] and 3.13 µM (inactive) in assay [8].
Regarding `CN(C)C(=O)OC(Cn1cncn1)c1ccc(Cl)cc1Cl` (centres undefined), the GI50 in assay [1], in assay [2], in assay [3], in [4], in [5] and in [6] was > 100 µM (inactive) each time. Besides, the GI50 in assay [8] is > 100 µM (inactive).
As to `CCCCCCCCCCCOC(=S)NC(C)C`, the GI50 in assay [1] is 21.4 µM (inactive); in assay [2] it was 17.8 µM (inactive); in [3], 18.3 µM (inactive); in assay [4], 27.5 µM (inactive); in assay [5] it was 16 µM (inactive); in assay [6], 25.8 µM (inactive). The GI50 in assay [8] was 33.9 µM (inactive); in assay [9] it was 16.7 µM (inactive).
Take `CCCCCCCCCCCCCC(=S)N/C=C/OC`: the GI50 in assay [1] was 33.4 µM (inactive); in assay [2], 21.7 µM (inactive); in [4], 35.8 µM (inactive); in assay [5], 40.1 µM (inactive); in [6], 38.3 µM (inactive); in assay [8], 48 µM (inactive). The GI50 in [9] is 24.3 µM (inactive).
Take `NC(=O)N1N=C2c3ccccc3CC[C@@H]2C1c1ccccc1` (some centres undefined): the GI50 in [1] is > 100 µM (inactive); in assay [2], 77.1 µM (inactive); in assay [3] it was > 100 µM (inactive); in [5] it was > 100 µM (inactive); in assay [6] it was > 100 µM (inactive); in assay [8], > 100 µM (inactive).
As for `COc1ccc(C2Oc3ccc(O)cc3[C@@H]2C)cc1OC` (some centres undefined), the GI50 in [1] was > 100 µM (inactive); in [2] it was 59.8 µM (inactive); in [3] it was > 100 µM (inactive); in assay [4], > 100 µM (inactive); in assay [5], > 100 µM (inactive); in [6] it was 71 µM (inactive). For the same compound, the GI50 in assay [8] and in [9] was > 100 µM (inactive) each time.
For the compound `CN(CC(=O)O)S(=O)(=O)c1ccc(Cl)cc1`, the GI50 in assay [1], in [3], in [4], in assay [5], in assay [6] and in assay [9] was > 100 µM (inactive) each time.
`O=C1c2ccccc2C(=O)c2c1oc1cc(O)c(Cl)cc21`: the GI50 is 6.22 µM (inactive) in assay [1]; 2.23 µM (inactive) in assay [2]; 2.41 µM (inactive) in assay [3]; 1.73 µM (inactive) in assay [4]; 2.67 µM (inactive) in assay [5]; 20.5 µM (inactive) in [6]. In addition, the results for the GI50 in [8] and in [9] were 5.69 µM (inactive) and 7.41 µM (inactive), respectively.
For `Cc1nn(-c2nc3ccccc3s2)c2c1C(=O)c1ccccc1-2`, the GI50 in assay [1] was > 100 µM (inactive); in assay [2], > 100 µM (inactive); in [3], > 100 µM (inactive); in [4] it was > 100 µM (inactive); in assay [5] it was > 100 µM (inactive); in assay [6], 74.8 µM (inactive). The GI50 in assay [8] was > 100 µM (inactive).
Regarding `NC1N=Nc2ccccc21` (centres undefined), the GI50 in [1], in assay [2], in [3], in assay [5], in assay [6] and in assay [7] was > 100 µM (inactive) throughout. Besides, the GI50 in assay [9] was > 100 µM (inactive).
As for `CCCCNC(=NC#N)NCCCC`, the GI50 was > 100 µM (inactive) in assay [1]; 55.6 µM (inactive) in assay [2]; > 100 µM (inactive) in assay [3]; > 100 µM (inactive) in assay [4]; > 100 µM (inactive) in assay [5]; > 100 µM (inactive) in assay [6]. The GI50 in assay [7], in [8] and in assay [9] was > 100 µM (inactive) in each case.
On to `COC1(C)CC2N(C(=O)c3ccccc3)N=C(c3ccccc3)CC2(C)O1` (centres undefined), for which the GI50 in assay [1] is 44.5 µM (inactive); in assay [2], > 100 µM (inactive); in [5], > 100 µM (inactive); in assay [6], > 100 µM (inactive); in [7], > 100 µM (inactive); in assay [9], > 100 µM (inactive).
On to `COc1cccc(C2=NC(C(C)C)CO2)c1` (centres undefined), for which the GI50 in assay [1], in [2], in assay [3], in [5], in assay [6] and in [8] was > 100 µM (inactive) throughout. Besides, in assay [9], the GI50 is > 100 µM (inactive).
Take `Cc1cc(C)nc(Nc2nc3cc([N+](=O)[O-])ccc3[nH]2)n1`: the GI50 in assay [1], in [2], in assay [3], in [5], in assay [6] and in assay [8] was > 100 µM (inactive) throughout. In addition, in assay [9], the GI50 is > 100 µM (inactive).
On to `N#CCCN(c1ccc(/C=N/c2ccccc2)cc1)S(=O)(=O)c1ccccc1`, for which the GI50 was > 100 µM (inactive) in assay [1]; > 100 µM (inactive) in [2]; > 100 µM (inactive) in [3]; 4.44 µM (inactive) in assay [6]; > 100 µM (inactive) in assay [8]; 0.834 µM (active) in [9].
For `O=C1/C(=C/c2ccccc2)CN(C(=O)OCc2ccccc2)C/C1=C\c1ccccc1`, the GI50 was 3.63 µM (inactive) in assay [1]; 11.2 µM (inactive) in assay [2]; 5 µM (inactive) in assay [3]; > 10 µM (inactive) in assay [4]; 11.1 µM (inactive) in assay [5]; 16.9 µM (inactive) in assay [7]. The GI50 is 14.8 µM (inactive) in [8] and 16.6 µM (inactive) in [9].
Regarding `COc1ccc2c(c1OC)C(=O)C2`, the GI50 in [2], in assay [3], in [4], in [5], in [6] and in assay [9] was > 100 µM (inactive) throughout.
Take `C/C(=N\NS(=O)(=O)c1ccc([N+](=O)[O-])cc1)c1ccc[n+]([O-])n1`: the GI50 in assay [1] is 2.58 µM (inactive); in [2], 1.77 µM (inactive); in assay [3], 0.764 µM (active); in assay [4], 11.6 µM (inactive); in assay [5], 4.48 µM (inactive); in [6], 2.21 µM (inactive). Besides, the results for the GI50 in [8] and in assay [9] were 4.48 µM (inactive) and 2.64 µM (inactive), respectively.
For `CCOC(=O)/N=C(\N)SCc1ccccc1`, the GI50 in assay [1], in assay [2], in assay [3], in assay [4], in assay [5] and in assay [6] was > 100 µM (inactive) throughout. Further, the GI50 in [7], in assay [8] and in [9] was > 100 µM (inactive) in each case.
As to `COc1ccc(/C=C2\CN(C)Cc3c2nc(N)nc3-c2ccc(OC)cc2)cc1`, the GI50 is 57 µM (inactive) in assay [1]; 65.3 µM (inactive) in assay [2]; > 100 µM (inactive) in [3]; 82 µM (inactive) in [5]; 49.5 µM (inactive) in assay [6]; > 100 µM (inactive) in assay [8]. In addition, the GI50 in assay [9] is 35 µM (inactive).
Consider `COC1OC(C)C(OC(=O)C(C)(C)C)C(OS(=O)(=O)c2ccc(C)cc2)C1OS(=O)(=O)c1ccc(C)cc1` (centres undefined), for which the GI50 in assay [1], in assay [2], in assay [3], in assay [4], in [5] and in assay [6] was > 100 µM (inactive) each time. The GI50 in [8] is > 100 µM (inactive).
As for `O=C1C(Cl)C(c2ccc(O)cc2)N1n1cnc2ccccc2c1=O` (centres undefined), the GI50 was 19.1 µM (inactive) in [1]; 28.2 µM (inactive) in assay [2]; 39.8 µM (inactive) in assay [3]; 49.4 µM (inactive) in [4]; 58.9 µM (inactive) in [5]; 16.7 µM (inactive) in assay [6]. In addition, the GI50 in assay [8] was 49 µM (inactive); in assay [9], 33.5 µM (inactive).
As to `O=[N+]([O-])c1ccc(C2CC(c3ccc(NCc4nc5ccccc5[nH]4)cc3)=NO2)cc1` (centres undefined), the GI50 was 45 µM (inactive) in [1]; 11.4 µM (inactive) in [2]; 32.1 µM (inactive) in assay [3]; > 100 µM (inactive) in assay [4]; 16.4 µM (inactive) in assay [6].
With `O=C(/C=N/c1ccccc1[S-])c1ccco1.O=C(/C=N/c1ccccc1[S-])c1ccco1.[Zn+2]`, the GI50 was 4.44 µM (inactive) in [1]; 21.2 µM (inactive) in assay [2]; 15.3 µM (inactive) in [5]; 10 µM (inactive) in assay [6]; 17 µM (inactive) in assay [7]; 16.8 µM (inactive) in assay [8].
As to `COc1ccc(/C=C/c2cc(OC)c(O[Si](C)(C)C(C)(C)C)c(OC)c2)cc1`, the GI50 in [1] is > 100 µM (inactive); in assay [2], 14 µM (inactive); in [3] it was 67 µM (inactive); in assay [5], > 100 µM (inactive); in assay [6], > 100 µM (inactive); in [7], 73.1 µM (inactive). Besides, in assay [9], the GI50 is > 100 µM (inactive).
Consider `CN(C)CCCNc1c2ccccc2nc2cccc([N+](=O)[O-])c12`, for which the GI50 was 0.0132 µM (active) in [2]; 0.01 µM (active) in [3]; 0.01 µM (active) in assay [5]; 0.0117 µM (active) in [8]; 0.01 µM (active) in assay [9].
`O=S(=O)(c1ccccc1)C1CN2OC1(S(=O)(=O)c1ccccc1)CC2c1ccc(Br)cc1` (centres undefined): the GI50 in [1] was > 100 µM (inactive); in [2] it was > 100 µM (inactive); in assay [3], > 100 µM (inactive); in assay [5] it was > 100 µM (inactive); in assay [7], 26.5 µM (inactive); in assay [9], 18.6 µM (inactive).
